The values below come from patent US20110245081A1, “HERBICIDE COMPOSITION FOR LAWN” (priority 2006, published 2011).

Holding throughout (type): in vivo
The subject of data set [1] is Erigeron canadensis. As to the kind of experiment: Test Example 1: soil treatment by mixing, herbicidal effect. To be noted: 1080 h.
The test system of data set [2] is Chenopodium ficifolium. In words: Test Example 2: foliage and soil treatment by mixing, herbicidal effect. The settings on record: 1080 h.
Data set [3] deals with Digitaria ciliayis (Retz.) Koeler. As to the kind of experiment: Test Example 1: soil treatment by mixing, herbicidal effect. To be noted: 1080 h. On the procedure: (§1) On a field of Zoysia japonica sectioned to 100 cm×100 cm, seeds of Digitaria ciliayis (Retz.) Koeler, Poa annua L., Polygonum hydropiper L., Euphorbia supine Rafin, Oxalis comiculata L., Cyperus microiria were sown and covered with 0.5 cm soil. Seven days after weeds sowing, treatment was conducted with watering amount of 200 cc/m^2. The prescribed amount of test compound was sprayed with a small spray in the form of the formulation prepared according to the above-mentioned examples or a wettable powder of a single compound diluted with water.
(§2) The herbicidal effect and the degree of phytotoxicity to the lawn were studied 45 days after the agent treatment.
(§3) Herbicidal effect: 100%: complete death 0%: no effect Phytotoxicity: 100%: complete death 0%: no phytotoxicity
(§4) In the tables, ai means the effective component.

Data set [4] concerns Poa annua L. The description is as above. The settings on record: 1080 h. On the procedure: as §1, §2, §3, §4
The test system of data set [5] is Oxalis corniculata L. The data set is described as above. The settings on record: 1080 h. On the procedure:
as §1, §2, §3, §4

Data set [6] concerns Erigeron canadensis. As to the kind of experiment: Test Example 2: foliage and soil treatment by mixing, herbicidal effect. To be noted: 1080 h.
The test system of data set [7] is Polygonum blumei. In words: Test Example 1: soil treatment by mixing, herbicidal effect. The settings on record: 1080 h.
Data set [8] has as its system Polygonum blumei. As to the kind of experiment: Test Example 2: foliage and soil treatment by mixing, herbicidal effect. To be noted: 1080 h. On the procedure: as §1, §3
(§5) A test section of Zoysia matrella had been prepared in the same method as in the Test Example 1 and on the 28th day after weeds sowing a treatment was conducted with watering amount of 200 cc/m2. The prescribed amount of test compound was sprayed with a small spray in the form of the formulation prepared according to the aforementioned examples or a wettable powder of a single compound diluted with water.
(§6) The herbicidal effect and the degree of phytotoxicity to the lawn were studied 45 days after the agent treatment in the same manner as Test Example 1.

The subject of data set [9] is Digitaria ciliayis (Retz.) Koeler. The data set is described as above. To be noted: 1080 h. On the procedure:
as §1, §3, §5, §6

Data set [10] concerns Poa annua L. Described as above. The settings on record: 1080 h. On the procedure: as §1, §3, §5, §6
In data set [11] the test system is Oxalis corniculata L. The description is as above. The settings on record: 1080 h. On the procedure:
as §1, §3, §5, §6

Data set [12] concerns Chenopodium ficifolium. In words: Test Example 1: soil treatment by mixing, herbicidal effect. To be noted: 1080 h.
For data set [13], the system named is Zoysia matrella. The settings on record: foliage and soil treatment, 45 days.
The subject of data set [14] is Zoysia matrella. To be noted: soil treatment, 45 days.
Where [15] appears, read: soil treatment, 45 days, Indanofan 1000 g ai/ha.
Setting [16] is: foliage and soil treatment, 45 days, Indanofan 1000 g ai/ha.
[17] abbreviates: soil treatment, 45 days, Asulam 1500 g ai/ha.
Where [18] appears, read: foliage and soil treatment, 45 days, Asulam 1500 g ai/ha.
Where [19] appears, read: read-out: Herbicidal effect Chenopodium ficifolium.
The mark [20] stands for this setting: read-out: Herbicidal effect Digitaria ciliayis (Retz.) Koeler.
[21] abbreviates: read-out: Herbicidal effect Poa annua L.
Setting [22] is: read-out: Herbicidal effect Oxalis corniculata L.
[23] abbreviates: read-out: Herbicidal effect Polygonum blumei.
Setting [24] is: soil treatment, 45 days, Ethoxysulfuron 125 g ai/ha.
Where [25] appears, read: foliage and soil treatment, 45 days, Ethoxysulfuron 125 g ai/ha.
The mark [26] stands for this setting: soil treatment, 45 days, Fentrazamide 1500 g ai/ha.
Where [27] appears, read: foliage and soil treatment, 45 days, Fentrazamide 1500 g ai/ha.
The mark [28] stands for this setting: soil treatment, 45 days, Oxaziclomefone 150 g ai/ha.
Setting [29] is: foliage and soil treatment, 45 days, Oxaziclomefone 150 g ai/ha.

Where two headings read alike, the source gives them in different places.

Turning to `CCC1(CC2(c3cccc(Cl)c3)CO2)C(=O)c2ccccc2C1=O` (racemic) [Indanofan, (RS)-2-[2-(3-chlorophenyl)-2,3-epoxypropyl]-2-ethylindan-1,3-dione], the pest or weed control at 1000 g/ha with Erigeron canadensis [1] (setting [15]) was determined as 75%; in the data set on Chenopodium ficifolium [2] (setting [16]), 20%; in data set [3] (setting [15]), 0%; in the data set with Poa annua L. [4] (setting [15]) it was 0%; in the data set on Oxalis corniculata L. [5] (setting [15]), 50%; in the data set with Erigeron canadensis [6] (setting [16]) it was 0%. Moreover, the pest or weed control at 1000 g/ha in the data set with Polygonum blumei [7] (setting [15]) came out at 60%; in the data set with Polygonum blumei [8] (setting [16]), 0%; in [9] (setting [16]) it was 30%; with Poa annua L. [10] (setting [16]), 30%; in the data set with Oxalis corniculata L. [11] (setting [16]) it was 0%; with Chenopodium ficifolium [12] (setting [15]) it was 70%.

For `COC(=O)NS(=O)(=O)c1ccc(N)cc1` [Asulam, methyl sulfanyl carbamate], the pest or weed control at 1500 g/ha with Erigeron canadensis [1] (setting [17]) worked out at 0%; with Chenopodium ficifolium [2] (setting [18]), 60%; in data set [3] (setting [17]), 20%; with Poa annua L. [4] (setting [17]), 20%; in the data set with Oxalis corniculata L. [5] (setting [17]) it was 0%; in the data set on Erigeron canadensis [6] (setting [18]), 60%. Besides, the pest or weed control at 1500 g/ha with Polygonum blumei [7] (setting [17]) amounted to 0%; in the data set with Polygonum blumei [8] (setting [18]), 70%; in [9] (setting [18]), 40%; in the data set on Poa annua L. [10] (setting [18]) it was 30%; with Oxalis corniculata L. [11] (setting [18]) it was 60%; in the data set on Chenopodium ficifolium [12] (setting [17]), 0%.

In the case of `CCN(CC)C(=O)n1cnc(S(=O)(=O)c2c(C)cc(C)cc2C)n1` [Cafenstrole, N,N-diethyl-3-meticylsulfonyl-1H-1,2,4-triazol-1-carboxamide], the pest or weed control at 2000 g/ha with Erigeron canadensis [1] (soil, read-out: Herbicidal effect Erigeron canadensis) amounted to 75%; with Chenopodium ficifolium [2] (setting [19]), 20%; in data set [3] (setting [20]), 0%; in the data set on Poa annua L. [4] (setting [21]), 0%; with Oxalis corniculata L. [5] (setting [22]), 50%; in the data set on Erigeron canadensis [6] (read-out: Herbicidal effect Erigeron canadensis) it was 0%. In addition, the pest or weed control at 2000 g/ha in the data set on Polygonum blumei [7] (setting [23]) came out at 60%; in the data set on Polygonum blumei [8] (setting [23]), 0%; in data set [9] (setting [20]) it was 40%; in the data set on Poa annua L. [10] (setting [21]) it was 30%; in the data set on Oxalis corniculata L. [11] (setting [22]) it was 0%; in the data set with Chenopodium ficifolium [12] (setting [19]), 70%. In addition, the Zoysia matrella phytotoxicity in the data set on Zoysia matrella [13] (Cafenstrole 2000 g ai/ha) and in the data set on Zoysia matrella [14] (Cafenstrole 2000 g ai/ha) was 0% throughout.

In the case of `CCOc1ccccc1OS(=O)(=O)NC(=O)Nc1nc(OC)cc(OC)n1` [Ethoxysulfuron, 1-(4,6-dimethoxypyrimidin-2-yl)-3-(2-ethoxyphenoxysulfonyl)urea], the pest or weed control at 125 g/ha in the data set with Erigeron canadensis [1] (setting [24]) is 75%; in the data set on Chenopodium ficifolium [2] (setting [25]), 50%; in data set [3] (setting [24]), 0%; with Poa annua L. [4] (setting [24]) it was 0%; in the data set on Oxalis corniculata L. [5] (setting [24]), 50%; in the data set with Erigeron canadensis [6] (setting [25]), 60%. Further, the pest or weed control at 125 g/ha in the data set with Polygonum blumei [7] (setting [24]) came to 60%; in the data set with Polygonum blumei [8] (setting [25]), 40%; in data set [9] (setting [25]), 0%; in the data set with Poa annua L. [10] (setting [25]), 0%; in the data set with Oxalis corniculata L. [11] (setting [25]), 30%; in the data set with Chenopodium ficifolium [12] (setting [24]), 70%.

On to `CCN(C(=O)n1nnn(-c2ccccc2Cl)c1=O)C1CCCCC1` [Fentrazamide, 4-(2-chlorophenyl)-N-cyclohexyl-N-ethyl-4,5-dihydro-5-oxo-1H-terazol-1-carboxamide], for which the pest or weed control at 1500 g/ha in the data set with Erigeron canadensis [1] (setting [26]) came to 0%; in the data set with Chenopodium ficifolium [2] (setting [27]), 0%; in data set [3] (setting [26]), 90%; with Poa annua L. [4] (setting [26]) it was 80%; in the data set on Oxalis corniculata L. [5] (setting [26]), 0%; in the data set with Erigeron canadensis [6] (setting [27]), 0%. For the same compound, the pest or weed control at 1500 g/ha with Polygonum blumei [7] (setting [26]) came to 0%; with Polygonum blumei [8] (setting [27]), 0%; in [9] (setting [27]), 40%; with Poa annua L. [10] (setting [27]), 30%; with Oxalis corniculata L. [11] (setting [27]), 0%; in the data set on Chenopodium ficifolium [12] (setting [26]), 20%. Also, the Zoysia matrella phytotoxicity in the data set with Zoysia matrella [13] (Fentrazamide 1500 g ai/ha) and in the data set with Zoysia matrella [14] (Fentrazamide 1500 g ai/ha) was 0% each time.

Consider `CC1=C(c2ccccc2)C(=O)N(C(C)(C)c2cc(Cl)cc(Cl)c2)CO1` [Oxaziclomefone, 3-[1-(3,5-dichlorophenyl)-1-methylethyl]-3,4-dihydro-6-methyl-5-phenyl-2H-1,3-oxazin-4-one], for which the pest or weed control at 150 g/ha in the data set with Erigeron canadensis [1] (setting [28]) came out at 0%; with Chenopodium ficifolium [2] (setting [29]) it was 0%; in data set [3] (setting [28]), 90%; in the data set on Poa annua L. [4] (setting [28]), 90%; in the data set on Oxalis corniculata L. [5] (setting [28]) it was 0%; with Erigeron canadensis [6] (setting [29]), 0%. For the same compound, the pest or weed control at 150 g/ha is 0% in the data set with Polygonum blumei [7] (setting [28]); 0% with Polygonum blumei [8] (setting [29]); 30% in [9] (setting [29]); 30% with Poa annua L. [10] (setting [29]); 0% in the data set with Oxalis corniculata L. [11] (setting [29]); 0% with Chenopodium ficifolium [12] (setting [28]).
